The text below walks through data of article PMC9688530, “Development of Ic-ELISA and Colloidal Gold Lateral Flow Immunoassay for the Determination of Cypermethrin in Agricultural Samples” (Biosensors, 2022).

≈ marks a conversion by molar mass, not a printed value.

The test system of one series is anti-CYP mAb 2G7H9. The experiment in a line: ic-ELISA based on mAb 2G7H9. It is filed as binding, mouse. The procedure:
The ic-ELISA procedure was executed according to previous studies. Each well of the ELISA plate was coated with 100 μL of coating antigen diluted with carbonate buffer (0.05 mol/L, pH 9.6) at 4 °C overnight. After washing three times with phosphate-buffered saline (PBS, 0.01 mol/L, pH 7.4) containing 1‰ Tween-20, the wells were blocked with 200 μL of 5% skim milk powder in PBS at 37 °C for two hours. After the same washing procedure, 50 μL of CYP standard solution and 50 μL of mAb were pipetted into each well and incubated at 37 °C for one hour. After washing five times, 100 μL per well of 0.5‰ horseradish peroxidase-labeled goat anti-mouse IgG antibody in PBS was added and incubated at 37 °C for one hour. After the wells were washed five times, 100 μL per well of fresh substrate solution (0.1 mg/mL 3,3′,5,5′-tetramethylbenzidine and 0.024‰ H2O2 in 0.1 M citrate acid buffer) was added to react at 37 °C for 15 min. Then, 50 μL per well of 0.2 mol/L H2SO4 was used to stop the reaction, and the absorbances were read at 450 nm with a microplate reader.
Under the optimal conditions, a standard curve was constructed using a series of concentrations of standard solutions (50, 25, 12.5, 6.25, 3.13, 1.56, 0.78, 0.39 and 0.20 ng/mL) to assess the sensitivity of ic-ELISA. The IC50 and linear range (IC10–IC90) were calculated by a logistic equation established with Origin Pro 8.0.
The CRs of the ic-ELISA were calculated with the following equation:CR (%) = (IC50 of CYP/IC50 of analogues) × 100%.
(In general: An ELISA detects its analyte on a solid surface through an enzyme-linked reagent.)

In a further series the test system is monoclonal antibody. Details: method as in doi:10.1080/09540105.2013.794328. The settings on record: ic-ELISA based on a monoclonal antibody; cited from earlier work.

What is called IC50 is the concentration at which inhibition is half-maximal. Regarding `CC1(C)C(C=C(Cl)Cl)C1C(=O)OC(C#N)c1cccc(Oc2ccccc2)c1` (stereo not drawn) [CYP, Cypermethrin], the IC50 with anti-CYP mAb 2G7H9 (hapten 5-BSA as coating antigen, before buffer optimization) turned out to be 5.75 ng/mL (≈ 0.0138 µM); with anti-CYP mAb 2G7H9 (homologous ic-ELISA, hapten 1 as coating antigen), 19.14 ng/mL (≈ 0.046 µM); in the series with anti-CYP mAb 2G7H9 (homologous ic-ELISA, hapten 1 as coating antigen, listed as Cypermethrin), 19 ng/mL (≈ 0.0456 µM); in the series with anti-CYP mAb 2G7H9 (optimal conditions, coating antigen hapten 5-BSA, PBS pH 7.4, 10% methanol, 0.3 mol/L NaCl) it was 2.49 ng/mL (≈ 0.00598 µM); with anti-CYP mAb 2G7H9 (working buffer: 10% Acetone) it was 7.99 ng/mL (≈ 0.0192 µM); in the series on anti-CYP mAb 2G7H9 (working buffer: 10% Acetonitrile) it was 8.88 ng/mL (≈ 0.0213 µM). Further, the IC50 with anti-CYP mAb 2G7H9 (working buffer: 10% Dimethyl sulfoxide) was 11.03 ng/mL (≈ 0.0265 µM); in the series on anti-CYP mAb 2G7H9 (working buffer: 10% Methanol (solvent type comparison)), 7.67 ng/mL (≈ 0.0184 µM); in the series on anti-CYP mAb 2G7H9 (working buffer: Methanol 5%) it was 30.63 ng/mL (≈ 0.0736 µM); in the series on anti-CYP mAb 2G7H9 (working buffer: Methanol 20%), 20.59 ng/mL (≈ 0.0495 µM); in the series with anti-CYP mAb 2G7H9 (working buffer: Methanol 40%), 24.47 ng/mL (≈ 0.0588 µM); with anti-CYP mAb 2G7H9 (working buffer: Na+ 0.07 mol/L) it was 43.31 ng/mL (≈ 0.104 µM). For the same compound, the IC50 in the series on anti-CYP mAb 2G7H9 (working buffer: Na+ 0.14 mol/L) worked out at 9.22 ng/mL (≈ 0.0221 µM); in the series with anti-CYP mAb 2G7H9 (working buffer: Na+ 0.2 mol/L), 13.58 ng/mL (≈ 0.0326 µM); in the series with anti-CYP mAb 2G7H9 (working buffer: Na+ 0.3 mol/L), 2.42 ng/mL (≈ 0.00581 µM); in the series on anti-CYP mAb 2G7H9 (working buffer: Na+ 0.4 mol/L) it was 2.94 ng/mL (≈ 0.00706 µM); in the series with anti-CYP mAb 2G7H9 (working buffer: pH 6), 4.41 ng/mL (≈ 0.0106 µM); with anti-CYP mAb 2G7H9 (working buffer: pH 7), 5.24 ng/mL (≈ 0.0126 µM). Also, the IC50 in the series with anti-CYP mAb 2G7H9 (working buffer: pH 7.4) is given as 3.09 ng/mL (≈ 0.00742 µM); in the series on anti-CYP mAb 2G7H9 (working buffer: pH 8) it was 8.06 ng/mL (≈ 0.0194 µM); with anti-CYP mAb 2G7H9 (working buffer: pH 9) it was 4.03 ng/mL (≈ 0.00968 µM); with monoclonal antibody, 1.7 ng/mL (≈ 0.00408 µM). Moreover, in the series on anti-CYP mAb 2G7H9 (optimal conditions), the “limit of detection (IC10)” value is on record as 0.40 ng/mL. Also, the “linear range (IC10–IC90)” value with anti-CYP mAb 2G7H9 (optimal conditions) was in the range of 0.40 to 7.87 ng/mL.
